Literature values, collected in US20140088035A1, “TREATING SCHIZOPHRENIA” (THE GENERAL HOSPITAL CORPORATION, priority 2010, published 2014).

System: schizophrenia patients
Details: vitamin supplementation regimens; Levine et al. 2006, Godfrey et al. 1990

Nc1nc2ncc(CNc3ccc(C(=O)N[C@@H](CCC(=O)O)C(=O)O)cc3)nc2c(=O)[nH]1 [folate, pteroyl-L-glutamic acid]
symptomatic improvement in schizophrenia patients: associated with symptomatic improvement
